Measured values: PubChem BioAssay (NCI)
“And” between values parts separate entries of the source, which are not always exact repeats. Equal entries are not always repeated.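 Results reflect a 48-hour exposure of cells in 96-well plates to compound at five concentrations. GI50: concentration for 50% inhibition of growth. TGI denotes the concentration required for complete inhibition of growth.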

Tests used:
Assay in all cases: NCI anticancer screen, dose series, 48 h
A549 NSCLC = system: A549 NSCLC
HCT-15 colon = system: HCT-15 colon
HL-60(TB) leukemia = system: HL-60(TB) leukemia
IGROV1 ovarian = system: IGROV1 ovarian
MCF7 breast = system: MCF7 breast
MDA-MB-231 breast = system: MDA-MB-231 breast
NCI/ADR-RES ovarian = system: NCI/ADR-RES ovarian
SK-MEL-28 melanoma = system: SK-MEL-28 melanoma
SNB-75 CNS = system: SNB-75 CNS
T-47D breast = system: T-47D breast

Row | SMILES | GI50 (A549 NSCLC) | TGI (A549 NSCLC) | GI50 (HCT-15 colon) | TGI (HCT-15 colon) | GI50 (HL-60(TB) leukemia) | TGI (HL-60(TB) leukemia) | GI50 (IGROV1 ovarian) | TGI (IGROV1 ovarian) | GI50 (MCF7 breast) | TGI (MCF7 breast) | GI50 (MDA-MB-231 breast) | TGI (MDA-MB-231 breast) | GI50 (NCI/ADR-RES ovarian) | TGI (NCI/ADR-RES ovarian) [µM] | GI50 (SK-MEL-28 melanoma) | TGI (SK-MEL-28 melanoma) | GI50 (SNB-75 CNS) | TGI (SNB-75 CNS) | GI50 (T-47D breast) | TGI (T-47D breast)
1 | C/C(=C\C(=O)O[C@H]1[C@@H]2[C@H](C)CC[C@H]2[C@]2(C)O[C@@]1(C1CCCCC1)C[C@H]2OC(=O)CO)c1ccccc1 | 6.61 µM | 12.4 µM | 6.81 µM | 13 µM | 5.04 µM | 13.1 µM | 7.58 µM | 14.7 µM | 5.4 µM | 11.9 µM | 6.67 µM | 13 µM | 0.348 µM | 7.49 | 6.78 µM | 12.6 µM | 0.331 µM | 7.21 µM | 5.44 µM | 12.1 µM
2 | O=C(CCCc1ccc(N(CCCl)CCCl)cc1)NCc1ccccc1 | 6.88 µM | > 100 µM | 13.3 µM | > 100 µM | 4.37 µM | 23.4 µM | 13.8 µM | 43.9 µM | 3.08 µM | > 100 µM | 21.3 µM | > 100 µM | 6.88 µM | 60.7 | 17.2 µM | > 100 µM | 3.49 µM | 33 µM | 8.04 µM | 87.1 µM
3 | Cc1ccc(NC(=O)c2ccc(CN3CCN(C)CC3)cc2)cc1Nc1nc(-c2cccnc2)cs1 | 12.1 µM and 8.01 µM | 27.1 µM and > 10 µM | 4.52 µM and 3.18 µM | 19.5 µM and > 10 µM | 2.25 µM and 0.4 µM | 6.96 µM and 5.47 µM | 15 µM and 7.66 µM | 35.6 µM and > 10 µM | 5.97 µM and 2.84 µM | 21.7 µM and > 10 µM | 11.1 µM and 4.43 µM | 29.2 µM and > 10 µM | 22.7 µM and 7.39 µM | > 86.7 | 12 µM and 2.66 µM | 24.5 µM and 8.57 µM | 14.8 µM and 7.43 µM | 28.5 µM and > 10 µM | 4.89 µM and 1.87 µM | 22 µM and 7.06 µM
4 | O=P1(NCCCl)OCCCN1CCCl (stereo not given) |  | 434 µM |  | 429 µM |  | 381 µM |  | 457 µM |  | 388 µM |  | > 500 µM |  | 450 |  | 439 µM |  | 435 µM |  | > 500 µM
5 | O=C1C=C(Nc2ccccc2)c2ccccc2C1=O | 1.84 µM | 4.06 µM | 1.77 µM | 3.98 µM | 2.82 µM | 7.83 µM | 2.78 µM | 7.31 µM | 1.88 µM | 4.3 µM | 1.88 µM | 7.61 µM | 2.48 µM | 8.82 | 2.13 µM | 4.46 µM | 1.32 µM | 2.67 µM | 3.17 µM | 9.88 µM
6 | CCCCn1c(=O)[nH]c(N)c([C@@H]2c3c([nH]c(=O)n(CCCC)c3=O)Oc3ccc4ccccc4c32)c1=O | 11.5 µM | 24.5 µM | 1.67 µM | 3.41 µM | 2.47 µM | 6.75 µM | 1.89 µM | 4.78 µM | 2.88 µM | 24 µM | 1.85 µM | 4.58 µM | 2.82 µM | 8.84 | 2.52 µM | 6.23 µM | 1.71 µM | 9.62 µM | 10.7 µM | 37.6 µM
7 | CCOc1ccc(N(C)c2ccc(/C=C/C3=[N+](C)c4ccccc4C3(C)C)cc2)cc1 | 0.201 µM | 1.35 µM | 0.596 µM | 2.11 µM | 0.059 µM | 0.257 µM | 0.257 µM | 0.982 µM | 0.498 µM | 2.79 µM | 0.485 µM | 2.22 µM | 2.43 µM | 16.6 | 0.68 µM | 2.11 µM | 1.13 µM | 2.76 µM | 0.392 µM | 2.67 µM
8 | O=C(/C=C\c1ccc(O)c(O)c1)c1ccccc1O | 17.1 µM | > 100 µM | 2.52 µM | 19.1 µM | 2.4 µM | 6.05 µM | 0.711 µM | 23.8 µM | 14.6 µM | > 100 µM | 9.51 µM | 37 µM | 10.8 µM | 36.1 | 15.1 µM | 42.7 µM | 14.7 µM | 94.3 µM | 5.57 µM | 45.5 µM
9 | O=C1NC(=O)C(c2c[nH]c3ccccc23)=C1c1c[nH]c2ccccc12 | 10.7 µM | > 25 µM | 8.32 µM | > 25 µM | 11.1 µM | > 25 µM | > 20.9 µM | > 25 µM | 9.32 µM | > 25 µM | 12.6 µM | > 25 µM | 12.8 µM | > 25 | 15.1 µM | > 25 µM | 4.11 µM | > 25 µM | 10.2 µM | > 25 µM
10 | CS(=O)(=O)OCCN(CCOS(C)(=O)=O)c1ccc(C=Nc2ccc(-c3csc(COc4ccccc4)n3)cc2)cc1 |  | 32.1 µM |  | 22.4 µM |  | 16.2 µM |  | 32.8 µM |  | 81.8 µM |  | 42.7 µM |  | 49.7 |  | 25.5 µM |  | 11.6 µM |  | > 51.8 µM
11 | C=CCc1cccc(C=O)c1O | > 100 µM | > 100 µM | 6.56 µM | > 100 µM | 10.6 µM | 41 µM | > 100 µM | > 100 µM | 7.9 µM | > 100 µM | 19.1 µM | > 100 µM | 20.4 µM | > 100 | > 100 µM | > 100 µM | 10.6 µM | > 100 µM | 10.2 µM | > 100 µM
